{"source": "patent US20030186946A1", "about": "“Suppression of cytotoxic protein conformers” (priority 2002, published 2003)", "key": {"human amylin": {"molecular_target": "T1, human amylin (Homo sapiens, UniProt P10997)", "T1 sequence (P10997 34-70 limits assumed)": "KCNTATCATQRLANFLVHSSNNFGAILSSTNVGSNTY", "experiment": "Radiolabelled precipitation assay of amylin fibril formation", "assay_type": "biochemical", "set-up": "Amylin is a 37-residue; C-terminally amidated peptide having a disulfide bridge between the cysteines at residues 2 and 7; purchased Bachem Calif; (Torrance, Calif.); host or cells: chemical synthesis", "conditions": "200 μM Congo red, 10 μM human amylin, after 5 h", "procedure": "Radiolabelled Precipitation Assays. The precipitation of radiolabelled human and rat amylin fibrils was used as an independent method to monitor assembly of amylin fibrils in the presence or absence of potential inhibitors of amylin fibril formation. […] Incubation mixtures were then centrifuged at either 16,000×g or 100,000×g, for 20 min, and the amount of [^3H]-human amylin remaining in the supernatant after centrifugation was determined (Beckman LSW 3801 β-counter, USA). Results were expressed as percentages of precipitable counts per minute, relative to total radioactivity in the supernatant.\nIncorporation of [^3H]-amylin into amylin fibrils was followed for 24 hours. Human amylin fibrils were precipitated by centrifugation at either 16,000×g (FIG. 7A) or at 100,000×g (FIG. 7B). Rat amylin (10 μM) in the presence of [^3H]-rat amylin was used as a non-fibril forming control (♦) (FIG. 7A). The results are shown as the percentage of precipitable radioactive amylin, relative to total radioactivity in the supernatant at each time point. Each data point represents the mean±s.e.m of three separate reactions.\nThe incorporation of radioactive monomeric amylin into the human amylin fibrils as they form, can be used to measure the rate at which amylin fibrils form in the presence or absence of a potential inhibitory drug. Amylin fibrils can be separated from solution by centrifugation and the amount of radioactive amylin precipitated in the amylin fibril pellet is then used as a measure of the amount of amylin fibrils present at that time.\nThioflavin-T, although not polycyclic, is widely used in fluorescent assays to measure amylin fibril formation. Incorporation of radioactivity into the pellet of an aliquot of the reaction mixture centrifuged at 16,000×g, for 20 minutes was monitored over the time periods indicated. Rat amylin (10 μM) with [^3H]-rat amylin added was used as a non fibril forming control (∘) in each experiment. The results are shown as the percentage of precipitable radioactive amyloid, relative to total radioactivity in the supernatant at each time point. Each data point represents the mean±s.e.m of three separate experiments."}, "RINm5F cells": {"tested_on": "RINm5F cells", "experiment": "Cytotoxicity assay in RINm5F cells (calcein-AM / ethidium homodimer-1 staining)", "protocol": "Cell Culture and Cytotoxicity Assays. RINm5F cells were cultured in RPMI 1640 medium containing 10% fetal bovine serum, 290 μg/mL L-glutamine, 100 IU/mL penicillin and 100 μg/mL streptomycin. Cells were plated at a density of 15×1 cells per well, incubated for 48 h, rinsed with PBS and placed in fresh medium containing Congo red. Freshly prepared human amylin in Milli-Q water, was preincubated with Congo red for 30 min, then added to the cell culture medium to give a final concentration of 30 μM. Cells were treated for 22 h with human amylin in the presence or absence of 100 μM Congo red. Cell viability was determined by double-staining with calcein-AM and ethidium homodimer-1. Green fluorescence of live cells and red fluorescence marking nuclei of dead cells were simultaneously visualized using a Zeiss Axiovert S100 microscope equipped with a Zeiss filter set # 09. Photographs were taken at 400× magnification using a Zeiss AxioCam digital camera.\nA. Representative fluorescence micrograph of RINm5F cells treated with 30 μM human amylin for 22 h and stained with calcein-AM and ethidium homodimer-1 to show live cells (green) and dead cells (red). […] B. A representative micrograph of RINm5F cells treated with 30 μM human amylin and 100 μM Congo red stained as above. […] The percentage of live cells was determined for cells treated for 22 h with vehicle; 30 μM human amylin; 30 μM human amylin in the presence of 100 μM Congo red; or 30 μM rat amylin. Experiments were repeated independently 10 times except for human amylin plus Congo red (A+CR) which was repeated five times. Error bars represent the s.e.m of live and dead cell counts over 6-12 fields per condition."}}, "data": [{"substance": "Congo red", "values": [{"measurement": "reduction in amyloid content", "setting": "human amylin", "result": "approximately 3 fold"}, {"measurement": "protection against cytotoxic effects of human amylin", "setting": "RINm5F cells; 30 μM human amylin, 100 μM Congo red (3-fold molar excess), 22 h", "result": "inhibited the cytotoxic effects of amylin"}, {"measurement": "intrinsic cytotoxicity of compound to RINm5F β cells", "setting": "RINm5F cells; relative molar ratios which produced suppression of amyloid aggregation (low μM)", "result": "nointrinsic cytotoxic effects"}]}]}
